According to the NIST ThermoML archive (doi:10.1016/j.jct.2018.03.007):

Assays:
[1] = 100 kPa, Liquid; for speed of sound: Linear variable-path acoustic interferometer; for mass density: Vibrating tube method
[2] = xn = mol fraction of the nth substance listed; conditions: 100 kPa, Liquid, x2 = 0; for speed of sound: Linear variable-path acoustic interferometer; for mass density: Vibrating tube method

CCn1cc[n+](C)c1.O=S(=O)([O-])O [1-ethyl-3-methylimidazolium hydrogen sulfate]
[1], Frequency=2 MHz
Conditions | speed of sound [m/s]
298.15 K | 1982.8
303.15 K | 1962.9
308.15 K | 1943.1
313.15 K | 1923.2

[1]
Conditions | mass density [kg/m3]
298.15 K | 1365.75
303.15 K | 1362.62
308.15 K | 1359.53
313.15 K | 1356.41

C[S+](C)[O-] [dimethyl sulfoxide]
[1], Frequency=2 MHz
Conditions | speed of sound [m/s]
298.15 K | 1485
303.15 K | 1468.3
308.15 K | 1451.1
313.15 K | 1434.2

[1]
Conditions | mass density [kg/m3]
298.15 K | 1095.33
303.15 K | 1090.32
308.15 K | 1085.31
313.15 K | 1080.29

C[S+](C)[O-] [dimethyl sulfoxide] + CCn1cc[n+](C)c1.O=S(=O)([O-])O
[2], Frequency=2 MHz
Conditions | speed of sound [m/s]
298.15 K | 1485
303.15 K | 1468.3
308.15 K | 1451.1
313.15 K | 1434.2

[2]
Conditions | mass density [kg/m3]
298.15 K | 1095.33
303.15 K | 1090.32
308.15 K | 1085.31
313.15 K | 1080.29

CCO [ethanol]
[1], Frequency=3 MHz
Conditions | speed of sound [m/s]
298.15 K | 1142.7
303.15 K | 1125.3
308.15 K | 1108.8
313.15 K | 1091.5

[1]
Conditions | mass density [kg/m3]
298.15 K | 785.26
303.15 K | 780.98
308.15 K | 776.66
313.15 K | 772.28

CCO [ethanol] + CCn1cc[n+](C)c1.O=S(=O)([O-])O
[2], Frequency=3 MHz
Conditions | speed of sound [m/s]
298.15 K | 1142.7
303.15 K | 1125.3
308.15 K | 1108.8
313.15 K | 1091.5

[2]
Conditions | mass density [kg/m3]
298.15 K | 785.26
303.15 K | 780.98
308.15 K | 776.66
313.15 K | 772.28

CCCO [propan-1-ol]
[1], Frequency=2 MHz
Conditions | speed of sound [m/s]
298.15 K | 1206.1
303.15 K | 1189.1
308.15 K | 1172.2
313.15 K | 1155.4

[1]
Conditions | mass density [kg/m3]
298.15 K | 799.96
303.15 K | 795.92
308.15 K | 791.82
313.15 K | 787.73

CCCO [propan-1-ol] + CCn1cc[n+](C)c1.O=S(=O)([O-])O
[2], Frequency=2 MHz
Conditions | speed of sound [m/s]
298.15 K | 1206.1
303.15 K | 1189.1
308.15 K | 1172.2
313.15 K | 1155.4

[2]
Conditions | mass density [kg/m3]
298.15 K | 799.96
303.15 K | 795.92
308.15 K | 791.82
313.15 K | 787.73
